Reference: EP0114887B1, “POLYPEPTIDE” (LA JOLLA CANCER RESEARCH FOUNDATION, priority 1982, dated 1990)
Peptide text beside a SMILES is read from it.

Tests used:
[1] = test system: cells; assay: Cell attachment to peptide-coupled Sepharose (agarose) beads; type: cell-based; details: coupled to cyanogen bromide-activated agarose beads (Sepharose), sterilized by autoclaving
Description: The four synthetic peptides as well as the 11.5-kDal fragment and a 200-kDal fragment of fibronectin were coupled to cyanogen bromide-activated Sepharose-6MB beads (Pharmacia) according to the manufacturer's instructions. The peptides were first reduced as described above and used at 8 mg of peptide per ml of Sepharose. Albumin-coated beads and beads derivatized with ethanolamine were used as controls.
The cell attachment assays were performed as described (Ruoslahti, E. et al (1981) Methods Enzymology82,803-831) with human fibroblasts or normal rat kidney (NRK) cells. Briefly, 100 I of a single- cell suspension containing […] was placed in a flat-bottom microtiter well that had been coated with one of the peptides or with fibronectin. After 1 h at 37°C, unattached cells were washed away and attached cells were fixed and stained for counting. In some experiments soluble peptide was added to the medium to determine if its presence during the attachment would have an inhibitory effect. Cell attachment to the agarose beads was performed on a layer of beads in the bottom of a round-bottom microtiter well exactly as described above.

[2] = test system: cells; assay: Cell-attachment activity of the synthetic fragment compared with the entire polypeptide; type: cell-based

For CC[C@H](C)[C@H](NC(=O)[C@H](CO)NC(=O)[C@@H](NC(=O)[C@@H]1CCCN1C(=O)[C@H](CCCCN)NC(=O)[C@H](CO)NC(=O)[C@H](CO)NC(=O)[C@H](C)NC(=O)[C@@H]1CCCN1C(=O)[C@H](CO)NC(=O)[C@H](CC(=O)O)NC(=O)CNC(=O)[C@H](CCCNC(=N)N)NC(=O)CNC(=O)[C@@H](NC(=O)[C@@H](NC(=O)[C@H](C)NC(=O)[C@@H](N)Cc1ccc(O)cc1)C(C)C)[C@@H](C)O)[C@@H](C)CC)C(=O)N[C@@H](CC(N)=O)C(=O)N[C@@H](Cc1ccc(O)cc1)C(=O)N[C@@H](CCCNC(=N)N)C(=O)N[C@H](C(=O)N[C@@H](CCC(=O)O)C(=O)N[C@H](C(=O)N[C@@H](CC(=O)O)C(=O)N[C@@H](CCCCN)C(=O)N1CCC[C@H]1C(=O)N[C@@H](CO)C(=O)N[C@@H](CCC(N)=O)C(=O)N[C@@H](CCSC)C(=O)O)[C@@H](C)CC)[C@@H](C)O [30-residue fragment, H-Tyr-Ala-Val-Thr-Gly-Arg-Gly-Asp-Ser-Pro-Ala-Ser-Ser-Lys-Pro-IIe-Ser-IIe-Asn-Tyr-Arg-Thr-Glu-IIe-Asp-Lys-Pro-Ser-Gln-Met-OH] (H-YAVTGRGDSPASSKPISINYRTEIDKPSQM-OH), the “attachment of cells to beads” value [1] was “induces attachment of cells to the beads” and the “cell-attachment activity compared with the entire sequence” value [2] was “the same activity as the entire sequence”.
